# Source: ChEMBL document CHEMBL4311943, “3-[(1S,2S,3R)-2,3-Difluoro-1-hydroxy-7-methylsulfonylindan-4-yl]oxy-5-fluorobenzonitrile (PT2977), a Hypoxia-Inducible Factor 2α (HIF-2α) Inhibitor for the Treatment of Clear Cell Renal Cell Carcinoma” (J Med Chem, 2019)
# Activity calls are given as the source filed them. No cut-off for these calls is given here.
# What was measured:
# [1] = target: T1, UGT2B17 (Homo sapiens, UniProt O75795); assay: Substrate activity at recombinant human UGT2B17 expressed in baculovirus infected insect cell membranes assessed as enzyme-mediated glucuronidation by measuring Km at 50 uM preincubated for 5 mins followed by UDPGA addition and measured after 60 mins by LC-MS/MS analysis; format: ADME
# T1 sequence (O75795 whole entry): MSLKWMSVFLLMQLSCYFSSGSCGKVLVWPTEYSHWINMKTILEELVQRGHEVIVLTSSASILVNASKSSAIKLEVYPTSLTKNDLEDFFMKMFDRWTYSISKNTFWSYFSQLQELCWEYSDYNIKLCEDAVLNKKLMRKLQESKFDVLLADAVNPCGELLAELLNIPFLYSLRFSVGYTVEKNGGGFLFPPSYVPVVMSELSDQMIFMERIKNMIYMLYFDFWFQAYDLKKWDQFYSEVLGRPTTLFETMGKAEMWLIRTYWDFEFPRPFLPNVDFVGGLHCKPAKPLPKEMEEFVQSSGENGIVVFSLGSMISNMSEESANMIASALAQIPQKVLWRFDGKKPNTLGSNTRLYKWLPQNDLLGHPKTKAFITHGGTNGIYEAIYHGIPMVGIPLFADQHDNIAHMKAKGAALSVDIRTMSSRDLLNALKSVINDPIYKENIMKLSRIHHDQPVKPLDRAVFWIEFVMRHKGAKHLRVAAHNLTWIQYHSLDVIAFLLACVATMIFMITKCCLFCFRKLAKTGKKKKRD
# [2] = target: T2, UDP-glucuronosyltransferase 2B17 (Homo sapiens, UniProt O75795); assay: Substrate activity at recombinant human UGT2B17 expressed in baculovirus infected insect cell membranes assessed as enzyme-mediated glucuronidation by measuring Vmax per mg protein at 50 uM preincubated for 5 mins followed by UDPGA addition and measured after 60 mins by LC-MS/MS analysis; format: ADME; settings: 1 h
# T2 sequence (O75795 whole entry): T1 sequence (O75795 whole entry)
# [3] = target: T1, UGT2B17; assay: Substrate activity at UGT2B17 in human intestinal microsomes assessed as enzyme-mediated glucuronidation by measuring Km at 2 to 1000 uM preincubated for 5 mins followed by UDPGA addition and measured after 60 mins by LC-MS/MS analysis; format: ADME, Intestine
# [4] = target: T2, UDP-glucuronosyltransferase 2B17; assay: Substrate activity at UGT2B17 in human intestinal microsomes assessed as enzyme-mediated glucuronidation by measuring Vmax per mg protein at 2 to 1000 uM preincubated for 5 mins followed by UDPGA addition and measured after 60 mins by LC-MS/MS analysis; format: ADME, Intestine; settings: 1 h
# [5] = Drug metabolism in po dosed dog urine assessed as PT2639 formation; format: ADME, organism-based, Canis lupus familiaris; settings: in vivo
# [6] = Protein binding in human plasma at 10 uM measured after 4 hrs by LC-MS/MS analysis; format: ADME, cell-free; settings: read-out: PPB (converted)
# [7] = Dose normalized AUClast in Beagle dog at 5 mg/kg, po administered via gavage by UPLC-MS analysis; format: ADME, organism-based, Canis lupus familiaris; settings: in vivo
# [8] = system: Mus musculus; assay: In vivo inhibition of HIF-2alpha in SCID Beige mouse xenografted with human 786-O cells assessed as reduction in cyclin D1 mRNA expression at 10 mg/kg, po administered twice daily via gavage for 3 days measured 12 hrs post-last dose by qRT-PCR analysis; format: functional, organism-based
# [9] = target: UDP-glucuronosyltransferase 1A7 (Homo sapiens, UniProt Q9HAW7); assay: Substrate activity at recombinant human UGT1A7 expressed in baculovirus infected insect cell membranes assessed as enzyme-mediated glucuronidation by measuring PT2639 formation at 50 uM preincubated for 5 mins followed by UDPGA addition and measured after 60 mins by LC-MS/MS analysis; format: ADME; settings: 1 h
# [10] = Lipophilicity, log D of the compound at pH 7.4; format: physicochemical; settings: buffer
# [11] = Dose normalized AUClast in CD-1 mouse at 10 mg/kg, po administered via gavage by UPLC-MS analysis; format: ADME, organism-based; settings: in vivo
# [12] = Dose normalized AUClast in monkey at 10 mg/kg, po administered via gavage by UPLC-MS analysis; format: ADME, organism-based, Macaca mulatta; settings: rhesus monkey, in vivo
# [13] = Cmin in patient with advanced solid tumor at 800 mg, po administered twice daily measured on day 15 measured after 12 hrs; settings: human, in vivo
# [14] = Dose normalized AUClast in Sprague-Dawley rat at 10 mg/kg, po administered via gavage by UPLC-MS analysis; format: ADME, organism-based; settings: in vivo
# [15] = Drug level in plasma of SCID Beige mouse xenografted with human 786-O cells at 10 mg/kg, po administered twice daily via gavage for 3 days measured 12 hrs post-last dose; format: ADME, organism-based
# [16] = Thermodynamic aqueous solubility of the compound at pH 7.4; format: physicochemical; settings: buffer, read-out: Therm_solubility
# [17] = Drug metabolism in human hepatocytes assessed as PT2639 formation by HPLC-UV analysis; format: ADME, cell-based, Hepatocyte
# [18] = system: Homo sapiens; assay: In vivo inhibition of HIF-2alpha in patient with advanced solid tumor assessed as reduction in EPO expression at >500 ng/ml, po administered once daily; format: organism-based
# [19] = system: 786-0; assay: Antitumor activity against human 786-O cells xenografted in SCID Beige mouse assessed as tumor regression at 10 mg/kg, po administered twice daily via gavage for 3 days measured 12 hrs post-last; format: functional, organism-based
# [20] = target: UDP-glucuronosyltransferase 1A3 (Homo sapiens, UniProt P35503); assay: Substrate activity at recombinant human UGT1A3 expressed in baculovirus infected insect cell membranes assessed as enzyme-mediated glucuronidation by measuring PT2639 formation at 50 uM preincubated for 5 mins followed by UDPGA addition and measured after 60 mins by LC-MS/MS analysis; format: ADME; settings: 1 h
# [21] = Protein binding in mouse plasma at 10 uM measured after 4 hrs by LC-MS/MS analysis; format: ADME, cell-free; settings: read-out: PPB (converted)
# [22] = target: T3, Endothelial PAS domain-containing protein 1 (Homo sapiens, UniProt Q99814); assay: Inhibition of N-(3-Chlorophenyl-4,6-t2)-4-nitrobenzo[c][1,2,5]oxadiazol-5-amine binding to his-tagged HIF-2alpha PAS-B domain (unknown origin) measured after 1 hr by scintillation proximity assay
# [23] = target: T3, Endothelial PAS domain-containing protein 1
# Description: Inhibition of HIF-2alpha (unknown origin) expressed in human 786-O cells measured after 24 hrs by one-glo luciferase reporter gene assay
# [24] = Drug level in human hepatocytes treated with PT2385 assessed as metabolite formation by HPLC-UV analysis; format: ADME, cell-based, Hepatocyte
# [25] = target: T4, ATP-binding cassette sub-family C member 2 (Homo sapiens, UniProt Q92887); assay: Ratio of compound effect for substrate activity at human MRP2 expressed in Sf9 membrane vesicles assessed as protein-mediated drug uptake in presence of ATP to compound effect for substrate activity at human MRP2 expressed in Sf9 membrane vesicles assessed as protein-mediated drug uptake in absence of ATP; format: ADME, cell membranes
# [26] = target: T4, ATP-binding cassette sub-family C member 2; assay: Substrate activity at human MRP2 expressed in Sf9 membrane vesicles assessed as Vmax per mg protein; format: ADME
# [27] = target: MRP2 (ABCC2) (Homo sapiens, UniProt Q92887); assay: Substrate activity at human MRP2 expressed in Sf9 membrane vesicles assessed as Km; format: ADME; settings: Sf9 membrane vesicles expressing human MRP2
# [28] = Drug metabolism in iv or po dosed dog assessed as PT2385 formation; format: ADME, organism-based, Canis lupus familiaris; settings: in vivo
# [29] = target: Beta-glucuronidase (Escherichia coli (strain K12), UniProt P05804); assay: Drug metabolism assessed as Escherichia coli beta-glucuronidase-mediated PT2385 formation after 30 mins by LC-MS/MS analysis; format: ADME; settings: isolated protein, 0.5 h
# [30] = target: BCRP (ABCG2) (Homo sapiens, UniProt Q9UNQ0); assay: Substrate activity at BCRP (unknown origin) expressed in MDCK2 cells assessed as efflux ratio of permeability at up to 300 uM; format: ADME, cell-based
# [31] = target: P-gp (ABCB1) (Homo sapiens, UniProt P08183); assay: Substrate activity at P-gp (unknown origin) expressed in MDCK2 cells assessed as efflux ratio of permeability at up to 300 uM; format: ADME, cell-based; settings: MDCK-MDR1
# T3 sequence (Q99814 whole entry, the tested form may be a part): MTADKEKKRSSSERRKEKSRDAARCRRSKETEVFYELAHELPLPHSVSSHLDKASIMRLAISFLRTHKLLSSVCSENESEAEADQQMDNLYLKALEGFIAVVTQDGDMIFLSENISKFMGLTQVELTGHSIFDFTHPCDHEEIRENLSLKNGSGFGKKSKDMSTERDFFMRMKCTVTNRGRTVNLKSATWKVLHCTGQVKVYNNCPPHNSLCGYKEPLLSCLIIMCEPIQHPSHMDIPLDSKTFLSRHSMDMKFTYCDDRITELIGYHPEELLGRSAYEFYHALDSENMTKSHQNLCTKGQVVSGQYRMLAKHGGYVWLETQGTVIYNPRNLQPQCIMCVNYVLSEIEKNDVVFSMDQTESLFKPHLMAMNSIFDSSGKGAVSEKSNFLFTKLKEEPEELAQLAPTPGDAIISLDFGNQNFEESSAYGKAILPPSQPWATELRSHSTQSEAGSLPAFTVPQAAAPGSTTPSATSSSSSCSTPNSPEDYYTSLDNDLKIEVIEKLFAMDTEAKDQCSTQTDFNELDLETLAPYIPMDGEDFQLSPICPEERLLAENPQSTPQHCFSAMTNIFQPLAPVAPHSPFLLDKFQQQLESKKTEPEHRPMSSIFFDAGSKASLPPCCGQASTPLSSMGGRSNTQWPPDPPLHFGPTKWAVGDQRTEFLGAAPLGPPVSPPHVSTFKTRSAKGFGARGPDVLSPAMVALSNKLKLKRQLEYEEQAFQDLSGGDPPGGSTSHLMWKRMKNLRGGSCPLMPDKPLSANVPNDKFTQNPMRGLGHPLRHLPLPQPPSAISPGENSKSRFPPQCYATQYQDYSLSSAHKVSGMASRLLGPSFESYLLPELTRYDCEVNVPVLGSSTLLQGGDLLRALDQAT
# T4 sequence (Q92887 whole entry): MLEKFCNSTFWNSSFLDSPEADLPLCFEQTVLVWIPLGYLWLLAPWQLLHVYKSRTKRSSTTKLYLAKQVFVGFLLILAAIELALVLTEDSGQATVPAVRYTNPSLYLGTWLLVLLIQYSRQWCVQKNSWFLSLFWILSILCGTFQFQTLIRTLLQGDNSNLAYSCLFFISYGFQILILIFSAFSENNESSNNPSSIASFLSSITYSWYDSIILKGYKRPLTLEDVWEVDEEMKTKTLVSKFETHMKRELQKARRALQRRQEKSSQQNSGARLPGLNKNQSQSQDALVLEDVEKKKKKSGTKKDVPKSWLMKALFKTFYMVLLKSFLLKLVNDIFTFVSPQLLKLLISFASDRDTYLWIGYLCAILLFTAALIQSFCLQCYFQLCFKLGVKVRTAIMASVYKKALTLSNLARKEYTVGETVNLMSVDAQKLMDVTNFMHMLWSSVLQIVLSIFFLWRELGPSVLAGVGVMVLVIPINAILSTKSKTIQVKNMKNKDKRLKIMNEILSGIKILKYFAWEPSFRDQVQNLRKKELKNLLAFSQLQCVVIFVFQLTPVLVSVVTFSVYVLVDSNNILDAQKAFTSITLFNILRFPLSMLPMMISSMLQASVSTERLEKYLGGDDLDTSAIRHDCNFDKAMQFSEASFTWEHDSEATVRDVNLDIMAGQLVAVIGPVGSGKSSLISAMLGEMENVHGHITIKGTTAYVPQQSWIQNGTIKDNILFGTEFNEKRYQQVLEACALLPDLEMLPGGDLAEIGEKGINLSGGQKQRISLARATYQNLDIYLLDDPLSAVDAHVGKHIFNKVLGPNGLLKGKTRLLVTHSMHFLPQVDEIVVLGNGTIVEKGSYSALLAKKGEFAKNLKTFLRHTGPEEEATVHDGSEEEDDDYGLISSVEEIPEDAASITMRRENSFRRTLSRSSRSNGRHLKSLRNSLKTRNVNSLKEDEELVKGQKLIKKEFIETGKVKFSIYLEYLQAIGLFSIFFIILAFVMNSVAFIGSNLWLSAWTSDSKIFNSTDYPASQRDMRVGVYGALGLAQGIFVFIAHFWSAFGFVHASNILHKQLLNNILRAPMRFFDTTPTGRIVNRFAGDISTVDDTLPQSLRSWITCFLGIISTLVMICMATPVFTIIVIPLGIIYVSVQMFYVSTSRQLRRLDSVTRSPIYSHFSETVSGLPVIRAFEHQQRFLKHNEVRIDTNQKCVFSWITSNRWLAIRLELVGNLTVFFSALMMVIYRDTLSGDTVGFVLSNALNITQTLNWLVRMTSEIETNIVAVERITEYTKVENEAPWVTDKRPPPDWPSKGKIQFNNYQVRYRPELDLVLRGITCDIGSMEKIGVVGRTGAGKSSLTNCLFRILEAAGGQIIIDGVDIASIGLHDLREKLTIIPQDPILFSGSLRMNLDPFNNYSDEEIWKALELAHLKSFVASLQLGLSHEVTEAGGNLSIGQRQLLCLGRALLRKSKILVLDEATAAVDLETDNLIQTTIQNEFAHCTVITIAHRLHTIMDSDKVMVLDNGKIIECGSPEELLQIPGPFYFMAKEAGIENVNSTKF
# BCRP (ABCG2), sequence (Q9UNQ0 whole entry): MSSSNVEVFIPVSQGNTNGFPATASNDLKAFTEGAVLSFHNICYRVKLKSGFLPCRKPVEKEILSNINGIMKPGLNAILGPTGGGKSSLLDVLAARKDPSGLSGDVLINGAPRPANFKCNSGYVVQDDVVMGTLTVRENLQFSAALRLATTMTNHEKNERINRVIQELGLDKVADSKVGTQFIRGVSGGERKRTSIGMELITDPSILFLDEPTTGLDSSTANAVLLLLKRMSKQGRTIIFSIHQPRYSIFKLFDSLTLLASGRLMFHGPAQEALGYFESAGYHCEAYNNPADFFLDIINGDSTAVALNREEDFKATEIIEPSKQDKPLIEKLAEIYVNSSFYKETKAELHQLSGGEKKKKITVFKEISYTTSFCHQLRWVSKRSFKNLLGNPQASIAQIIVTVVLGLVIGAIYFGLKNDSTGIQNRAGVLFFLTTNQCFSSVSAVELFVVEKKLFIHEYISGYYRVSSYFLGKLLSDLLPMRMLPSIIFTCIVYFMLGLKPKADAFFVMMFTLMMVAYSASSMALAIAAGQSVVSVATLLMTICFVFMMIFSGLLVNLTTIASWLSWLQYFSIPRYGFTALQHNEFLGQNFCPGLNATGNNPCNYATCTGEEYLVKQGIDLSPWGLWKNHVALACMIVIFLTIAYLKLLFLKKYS
# UDP-glucuronosyltransferase 1A7, sequence (Q9HAW7 whole entry): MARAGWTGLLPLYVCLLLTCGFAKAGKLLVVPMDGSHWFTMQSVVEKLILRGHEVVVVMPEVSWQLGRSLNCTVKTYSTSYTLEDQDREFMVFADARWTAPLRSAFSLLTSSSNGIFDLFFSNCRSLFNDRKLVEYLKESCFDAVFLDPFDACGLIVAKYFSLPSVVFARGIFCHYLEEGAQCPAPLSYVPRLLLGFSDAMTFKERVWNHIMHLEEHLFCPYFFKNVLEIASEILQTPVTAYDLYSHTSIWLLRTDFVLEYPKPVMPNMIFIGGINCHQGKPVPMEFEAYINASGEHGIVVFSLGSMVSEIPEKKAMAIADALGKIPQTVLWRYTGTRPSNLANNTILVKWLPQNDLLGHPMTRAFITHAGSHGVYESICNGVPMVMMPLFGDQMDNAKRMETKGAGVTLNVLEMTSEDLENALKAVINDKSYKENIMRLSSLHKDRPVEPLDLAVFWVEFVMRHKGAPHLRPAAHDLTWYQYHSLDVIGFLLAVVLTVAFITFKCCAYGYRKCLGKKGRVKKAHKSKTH
# MRP2 (ABCC2), sequence (Q92887 whole entry): as the sequence (Q92887 whole entry) above
# UDP-glucuronosyltransferase 1A3, sequence (P35503 whole entry): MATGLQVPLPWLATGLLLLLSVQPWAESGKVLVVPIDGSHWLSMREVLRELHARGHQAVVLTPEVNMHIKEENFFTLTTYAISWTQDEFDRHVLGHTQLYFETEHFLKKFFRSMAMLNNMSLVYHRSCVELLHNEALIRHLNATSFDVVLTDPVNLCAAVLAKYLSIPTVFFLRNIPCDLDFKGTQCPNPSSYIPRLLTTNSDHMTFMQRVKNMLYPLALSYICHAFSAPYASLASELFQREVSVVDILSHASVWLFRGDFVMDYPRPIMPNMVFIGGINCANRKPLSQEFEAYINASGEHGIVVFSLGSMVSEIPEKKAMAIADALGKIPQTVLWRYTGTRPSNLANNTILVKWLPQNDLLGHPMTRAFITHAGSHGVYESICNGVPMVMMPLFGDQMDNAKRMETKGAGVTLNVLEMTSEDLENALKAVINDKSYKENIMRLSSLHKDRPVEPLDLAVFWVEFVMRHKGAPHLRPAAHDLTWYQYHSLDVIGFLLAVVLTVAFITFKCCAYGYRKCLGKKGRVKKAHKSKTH
# Beta-glucuronidase, sequence (P05804 whole entry): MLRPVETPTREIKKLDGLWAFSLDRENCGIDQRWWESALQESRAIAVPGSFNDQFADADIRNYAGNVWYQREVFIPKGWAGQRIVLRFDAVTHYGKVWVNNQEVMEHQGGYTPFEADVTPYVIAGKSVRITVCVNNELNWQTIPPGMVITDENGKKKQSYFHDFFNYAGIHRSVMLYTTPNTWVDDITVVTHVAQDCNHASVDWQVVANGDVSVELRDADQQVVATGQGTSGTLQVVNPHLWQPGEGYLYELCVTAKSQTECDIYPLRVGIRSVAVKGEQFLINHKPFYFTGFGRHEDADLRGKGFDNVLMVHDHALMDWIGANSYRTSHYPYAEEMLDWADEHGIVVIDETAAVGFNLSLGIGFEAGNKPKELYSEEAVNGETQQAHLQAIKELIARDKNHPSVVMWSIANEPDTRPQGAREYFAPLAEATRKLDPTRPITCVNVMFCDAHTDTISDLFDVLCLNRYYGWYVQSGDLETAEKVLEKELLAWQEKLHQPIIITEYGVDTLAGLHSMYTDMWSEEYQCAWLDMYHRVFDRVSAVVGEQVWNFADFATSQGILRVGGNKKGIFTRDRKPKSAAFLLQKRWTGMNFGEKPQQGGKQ
Structure (SMILES),"Km at 1 h, 50 µM [1]",Vmax [2],"Km at 1 h, up to 1000 µM [3]",Vmax [4],IC50 [22],further results
CS(=O)(=O)c1ccc(Oc2cc(F)cc(C#N)c2)c2c1[C@H](O)[C@H](F)C2,15 µM,14 pmol/min,28 µM,2.1 pmol/min,–,–
CS(=O)(=O)c1ccc(Oc2cc(F)cc(C#N)c2)c2c1[C@H](O)[C@@H](F)C2,15 µM,50 pmol/min,26 µM,11 pmol/min,–,–
CS(=O)(=O)c1ccc(Oc2cc(F)cc(C#N)c2)c2c1[C@H](O)C(F)(F)C2,11 µM,280 pmol/min,20 µM,49 pmol/min,–,"Drug metabolism [5]: Metabolite_Detected; fraction unbound at 4 h, 10 µM [6]: 0.18; AUClast/dose [7]: 7.2 µM·h; inhibition [8]: Active; Drug metabolism [9]: Metabolite_Notdetected; logD [10]: 2.2; AUClast/dose [11]: 21 µM·h; AUClast/dose [12]: 3.1 µM·h; concentration at 12 h [13]: 860 ng/mL; AUClast/dose [14]: 5.1 µM·h; concentration at 12 h [15]: 260 ng/mL; solubility thermodynamic [16]: 15 µg/mL; Drug metabolism [17]: Metabolite_Detected; inhibition (INH) [18]: Active; Activity [19]: Active; Drug metabolism [20]: Metabolite_Notdetected; fraction unbound at 4 h, 10 µM [21]: 0.29"
CS(=O)(=O)c1ccc(Oc2cc(F)cc(C#N)c2)c2c1[C@H](O)C[C@H]2F,–,–,–,–,> 10000 nM,–
CS(=O)(=O)c1ccc(Oc2cc(F)cc(C#N)c2)c2c1[C@H](O)CC2,12 µM,3.8 pmol/min,40 µM,0.8 pmol/min,–,–
CS(=O)(=O)c1ccc(Oc2cc(F)cc(C#N)c2)c2c1[C@H](O)C(F)(F)[C@@H]2F,5.5 µM,440 pmol/min,15 µM,72 pmol/min,9 nM,EC50 [23]: 4 nM
CS(=O)(=O)c1ccc(Oc2cc(F)cc(C#N)c2)c2c1[C@H](O)C[C@@H]2F,12 µM,1.4 pmol/min,130 µM,0.3 pmol/min,210 nM,EC50 [23]: 460 nM
CS(=O)(=O)c1ccc(Oc2cc(F)cc(C#N)c2)c2c1[C@H](O[C@@H]1O[C@H](C(=O)O)[C@@H](O)[C@H](O)[C@H]1O)C(F)(F)C2,–,–,–,–,–,Drug metabolism [24]: Metabolite_Detected; Ratio [25]: 32; Vmax [26]: 1230 pmol/min; Km [27]: 97 µM; Drug metabolism [28]: Metabolite_Detected; Drug metabolism [29]: Metabolite_Detected; efflux ratio [30]: < 2; efflux ratio [31]: < 2
